Laboratory results: ChEMBL document CHEMBL1131386, “Synthesis and evaluation of 11beta-substituted 21-chloro/iodo-(17alpha,20E/Z)-19-norpregna-1,3,5(10),20-te traene-3, 17beta-diols: high-affinity ligands for the estrogen receptor” (J Med Chem, 1998)

Legend:
[1] = target: T1, Estrogen receptor (Ovis aries) (UniProt P49885+Q9TU15); experiment: Relative binding affinity for lamb uterine estrogen receptor at 4C; assay type: protein assay
[2] = target: T1, Estrogen receptor (Ovis aries); experiment: Relative binding affinity for lamb uterine estrogen receptor at 25 degree C; assay type: protein assay

Compound	RBA [1]	RBA [2]
CO[C@H]1C[C@@]2(C)[C@@H](CC[C@@]2(O)/C=C\Cl)[C@@H]2CCc3cc(O)ccc3[C@H]21	22	195
C[C@]12CC[C@@H]3c4ccc(O)cc4CC[C@H]3[C@@H]1CC[C@@]2(O)/C=C/Cl	102	89
C=C[C@H]1C[C@@]2(C)[C@@H](CC[C@@]2(O)/C=C/I)[C@@H]2CCc3cc(O)ccc3[C@H]21	78	447
CO[C@H]1C[C@@]2(C)[C@@H](CC[C@@]2(O)/C=C/I)[C@@H]2CCc3cc(O)ccc3[C@H]21	34	65
C=C[C@H]1C[C@@]2(C)[C@@H](CC[C@@]2(O)/C=C/Cl)[C@@H]2CCc3cc(O)ccc3[C@H]21	107	724
C=C[C@H]1C[C@@]2(C)[C@@H](CC[C@@]2(O)/C=C\Cl)[C@@H]2CCc3cc(O)ccc3[C@H]21	101	704
C[C@]12CC[C@@H]3c4ccc(O)cc4CC[C@H]3[C@@H]1CC[C@@]2(O)/C=C\Cl	126	199
CO[C@H]1C[C@@]2(C)[C@@H](CC[C@@]2(O)/C=C\I)[C@@H]2CCc3cc(O)ccc3[C@H]21	48	513
C=C[C@H]1C[C@@]2(C)[C@@H](CC[C@@]2(O)/C=C\I)[C@@H]2CCc3cc(O)ccc3[C@H]21	98	1200
C[C@]12CC[C@@H]3c4ccc(O)cc4CC[C@H]3[C@@H]1CC[C@@]2(O)/C=C\I	202	776
CO[C@H]1C[C@@]2(C)[C@@H](CC[C@@]2(O)/C=C/Cl)[C@@H]2CCc3cc(O)ccc3[C@H]21	29	65
C[C@]12CC[C@@H]3c4ccc(O)cc4CC[C@H]3[C@@H]1CC[C@@]2(O)/C=C/I	77	62
